Target: T1, Bile acid receptor (Homo sapiens, UniProt Q96RI1)
T1 sequence (Q96RI1 whole entry): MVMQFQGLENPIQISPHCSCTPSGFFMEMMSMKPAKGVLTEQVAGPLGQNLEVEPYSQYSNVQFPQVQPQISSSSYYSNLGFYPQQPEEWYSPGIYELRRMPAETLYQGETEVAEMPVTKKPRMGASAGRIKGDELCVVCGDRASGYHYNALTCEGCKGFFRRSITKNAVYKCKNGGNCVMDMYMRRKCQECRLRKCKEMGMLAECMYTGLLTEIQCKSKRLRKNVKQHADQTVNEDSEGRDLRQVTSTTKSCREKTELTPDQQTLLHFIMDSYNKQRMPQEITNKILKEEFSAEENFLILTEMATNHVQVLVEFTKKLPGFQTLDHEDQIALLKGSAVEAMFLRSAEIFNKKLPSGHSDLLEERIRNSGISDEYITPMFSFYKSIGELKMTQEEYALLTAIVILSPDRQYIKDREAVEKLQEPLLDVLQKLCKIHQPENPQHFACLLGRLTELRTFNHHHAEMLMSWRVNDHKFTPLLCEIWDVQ
Assay: Agonist activity at FXR

COC(=O)/C=C/c1cccc(N(Cc2ccc(-c3ccc(C(C)(C)C)cc3)cc2)C(=O)C(C)C)c1
EC50: 0.343 µM

From BindingDB's records for doi:10.1016/j.bmcl.2012.09.045 (East China University of Science and Technology, 2012)
